# Assay results published in ChEMBL document CHEMBL4308864, “Targeting tyrosine kinase: Development of acridone - pyrrole - oxindole hybrids against human breast cancer” (2019).
# Assays:
# Assay type in all cases: functional
# NCI-H522 = experiment: Growth inhibition of human NCI-H522 cells assessed as cell growth at 10^-5 M incubated for 48 hrs by sulforhodamine B assay relative to control; conditions: NCI-H522, 48 h, read-out: Activity
# OVCAR-5 = experiment: Growth inhibition of human OVCAR5 cells assessed as cell growth at 10^-5 M incubated for 48 hrs by sulforhodamine B assay relative to control; conditions: OVCAR-5, 48 h, read-out: Activity
# HCT-116 = experiment: Growth inhibition of human HCT116 cells assessed as cell growth at 10^-5 M incubated for 48 hrs by sulforhodamine B assay relative to control; conditions: HCT-116, 48 h, read-out: Activity
# Malme-3M = experiment: Growth inhibition of human MALME-3M cells assessed as cell growth at 10^-5 M incubated for 48 hrs by sulforhodamine B assay relative to control; conditions: read-out: Activity
# RXF 393 = experiment: Growth inhibition of human RXF393 cells assessed as cell growth at 10^-5 M incubated for 48 hrs by sulforhodamine B assay relative to control; conditions: RXF 393, 48 h, read-out: Activity
# OVCAR-3 = experiment: Growth inhibition of human OVCAR3 cells assessed as cell growth at 10^-5 M incubated for 48 hrs by sulforhodamine B assay relative to control; conditions: OVCAR-3, 48 h, read-out: Activity
# PC-3 = experiment: Growth inhibition of human PC3 cells assessed as cell growth at 10^-5 M incubated for 48 hrs by sulforhodamine B assay relative to control; conditions: PC-3, 48 h, read-out: Activity
# RPMI-8226 = experiment: Growth inhibition of human RPMI8226 cells assessed as cell growth at 10^-5 M incubated for 48 hrs by sulforhodamine B assay relative to control; conditions: RPMI-8226, 48 h, read-out: Activity
# MOLT-4 = experiment: Growth inhibition of human MOLT4 cells assessed as cell growth at 10^-5 M incubated for 48 hrs by sulforhodamine B assay relative to control; conditions: MOLT-4, 48 h, read-out: Activity
# U-251 = experiment: Growth inhibition of human U251 cells assessed as cell growth at 10^-5 M incubated for 48 hrs by sulforhodamine B assay relative to control; conditions: U-251, 48 h, read-out: Activity
# SN12C = experiment: Growth inhibition of human SN12C cells assessed as cell growth at 10^-5 M incubated for 48 hrs by sulforhodamine B assay relative to control; conditions: read-out: Activity
# SK-MEL-5 = experiment: Growth inhibition of human SK-MEL-5 cells assessed as cell growth at 10^-5 M incubated for 48 hrs by sulforhodamine B assay relative to control; conditions: SK-MEL-5, 48 h, read-out: Activity
# HCC 2998 = experiment: Growth inhibition of human HCC2998 cells assessed as cell growth at 10^-5 M incubated for 48 hrs by sulforhodamine B assay relative to control; conditions: HCC 2998, 48 h, read-out: Activity
# UACC-257 = experiment: Growth inhibition of human UACC257 cells assessed as cell growth at 10^-5 M incubated for 48 hrs by sulforhodamine B assay relative to control; conditions: UACC-257, 48 h, read-out: Activity
# HOP-62 = experiment: Growth inhibition of human HOP62 cells assessed as cell growth at 10^-5 M incubated for 48 hrs by sulforhodamine B assay relative to control; conditions: HOP-62, 48 h, read-out: Activity
# ACHN = experiment: Growth inhibition of human ACHN cells assessed as cell growth at 10^-5 M incubated for 48 hrs by sulforhodamine B assay relative to control; conditions: read-out: Activity
# SW-620 = experiment: Growth inhibition of human SW620 cells assessed as cell growth at 10^-5 M incubated for 48 hrs by sulforhodamine B assay relative to control; conditions: SW-620, 48 h, read-out: Activity
# OVCAR-4 = experiment: Growth inhibition of human OVCAR4 cells assessed as cell growth at 10^-5 M incubated for 48 hrs by sulforhodamine B assay relative to control; conditions: OVCAR-4, 48 h, read-out: Activity
# SNB-19 = experiment: Growth inhibition of human SNB19 cells assessed as cell growth at 10^-5 M incubated for 48 hrs by sulforhodamine B assay relative to control; conditions: SNB-19, 48 h, read-out: Activity
# K562 = experiment: Growth inhibition of human K562 cells assessed as cell growth at 10^-5 M incubated for 48 hrs by sulforhodamine B assay relative to control; conditions: K562, 48 h, read-out: Activity
# SF-268 = experiment: Growth inhibition of human SF268 cells assessed as cell growth at 10^-5 M incubated for 48 hrs by sulforhodamine B assay relative to control; conditions: SF-268, 48 h, read-out: Activity
# A549 = experiment: Growth inhibition of human A549/ATCC cells assessed as cell growth at 10^-5 M incubated for 48 hrs by sulforhodamine B assay relative to control; conditions: A549, 48 h, read-out: Activity
# NCI-H460 = experiment: Growth inhibition of human NCI-H460 cells assessed as cell growth at 10^-5 M incubated for 48 hrs by sulforhodamine B assay relative to control; conditions: NCI-H460, 48 h, read-out: Activity
# NCI-H23 = experiment: Growth inhibition of human NCI-H23 cells assessed as cell growth at 10^-5 M incubated for 48 hrs by sulforhodamine B assay relative to control; conditions: NCI-H23, 48 h, read-out: Activity
# IGROV-1 = experiment: Growth inhibition of human IGROV1 cells assessed as cell growth at 10^-5 M incubated for 48 hrs by sulforhodamine B assay relative to control; conditions: IGROV-1, 48 h, read-out: Activity
# SK-MEL-2 = experiment: Growth inhibition of human SK-MEL-2 cells assessed as cell growth at 10^-5 M incubated for 48 hrs by sulforhodamine B assay relative to control; conditions: SK-MEL-2, 48 h, read-out: Activity
# SR = experiment: Growth inhibition of human SR cells assessed as cell growth at 10^-5 M incubated for 48 hrs by sulforhodamine B assay relative to control; conditions: read-out: Activity
Compound,growth at 10 µM (NCI-H522),growth at 10 µM (OVCAR-5),growth at 10 µM (HCT-116),growth at 10 µM (Malme-3M),growth at 10 µM (RXF 393),growth at 10 µM (OVCAR-3),growth at 10 µM (PC-3),growth at 10 µM (RPMI-8226),growth at 10 µM (MOLT-4),growth at 10 µM (U-251),growth at 10 µM (SN12C),growth at 10 µM (SK-MEL-5),growth at 10 µM (HCC 2998),growth at 10 µM (UACC-257),growth at 10 µM (HOP-62),growth at 10 µM (ACHN),growth at 10 µM (SW-620),growth at 10 µM (OVCAR-4),growth at 10 µM (SNB-19),growth at 10 µM (K562),other results
O=C1Nc2ccccc2/C1=C/c1cccn1CCCCCn1c2ccccc2c(=O)c2ccccc21,66.3%,82.6%,69.8%,84.5%,89.2%,70.9%,42%,22.1%,46%,93.4%,97.1%,32.2%,42.5%,106%,58.3%,55.1%,100%,57.1%,95.3%,52.1%,growth at 10 µM (SF-268): 83.3%; growth at 10 µM (A549): 81.4%; growth at 10 µM (NCI-H460): 95.9%; growth at 10 µM (NCI-H23): 69.6%; growth at 10 µM (IGROV-1): 73%; growth at 10 µM (SK-MEL-2): 84%; growth at 10 µM (SR): 76.1%
O=C1Nc2ccccc2/C1=C/c1cccn1CCCCn1c2ccccc2c(=O)c2ccccc21,68.4%,77.9%,74.2%,91.9%,88.1%,86.7%,55.1%,33.5%,47.7%,95.1%,97.9%,38.6%,40.5%,105%,77.4%,76.3%,98.8%,65.8%,98.4%,59.5%,growth at 10 µM (SF-268): 83.1%; growth at 10 µM (A549): 86.3%; growth at 10 µM (NCI-H460): 93.7%; growth at 10 µM (NCI-H23): 77.4%; growth at 10 µM (IGROV-1): 77.3%; growth at 10 µM (SK-MEL-2): 84%; growth at 10 µM (SR): 80.1%
O=C1/C(=C\c2cccn2CCCCn2c3ccccc3c(=O)c3ccccc32)c2ccccc2N1c1c(Cl)cccc1Cl,90%,104%,98.4%,106%,97.5%,118%,78.9%,97.4%,93.8%,96%,101%,98.7%,46.7%,101%,104%,99.5%,105%,78.3%,98.2%,91.5%,growth at 10 µM (SF-268): 94%; growth at 10 µM (A549): 93%; growth at 10 µM (NCI-H460): 104%; growth at 10 µM (NCI-H23): 101%; growth at 10 µM (IGROV-1): 110%; growth at 10 µM (SK-MEL-2): 105%; growth at 10 µM (SR): 87.7%
